Some test systems named below: LOX IMVI melanoma; TK-10 renal; SF-539 CNS; HOP-92 NSCLC; HT29 colon; RXF 393 renal; SR leukemia; MDA-MB-231 breast; K-562 leukemia; MOLT-4 leukemia.
What all share (experiment): growth of human tumour cells (NCI), 48 h

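Assay format: 96-well plates, 48-hour exposure. Here, GI50 denotes the concentration required for 50% inhibition of growth. TGI denotes the concentration required for complete inhibition of growth.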

With `CC(=O)O[C@H]1CC[C@@]2(C)C(=CC[C@@H]3[C@@H]2CC[C@]2(C)C(=O)/C(=C\c4ccccc4)C[C@@H]32)C1`, the TGI in the assay on LOX IMVI melanoma, in the assay on TK-10 renal, in the assay with SF-539 CNS, with HOP-92 NSCLC, with HT29 colon and in the assay with RXF 393 renal was above 100 µM in each case. The TGI with SR leukemia, with MDA-MB-231 breast, in the assay on K-562 leukemia and in the assay with MOLT-4 leukemia was above 100 µM in each case.
Regarding `NC(Cc1c2ccccc2cc2ccccc12)C(=O)O` (stereo not given), the TGI in the assay on LOX IMVI melanoma, in the assay with TK-10 renal, with SF-539 CNS, in the assay on HOP-92 NSCLC, in the assay on HT29 colon and with RXF 393 renal was above 100 µM each time. Besides, the TGI was above 100 µM in the assay on SR leukemia, above 100 µM in the assay on MDA-MB-231 breast, above 100 µM in the assay with K-562 leukemia and 94.4 µM with MOLT-4 leukemia.
`COC(=O)c1c(O)ccc2c1c1c(n2CCc2ccccc2)C(=O)c2ccccc2C1`: the TGI is above 100 µM in the assay on LOX IMVI melanoma; above 100 µM in the assay with TK-10 renal; 45.2 µM with SF-539 CNS; 30.9 µM with HOP-92 NSCLC; 70.4 µM in the assay on HT29 colon; 31.3 µM with RXF 393 renal. Further, the TGI was above 100 µM in the assay on SR leukemia, 57 µM in the assay on MDA-MB-231 breast, above 100 µM with K-562 leukemia and above 100 µM with MOLT-4 leukemia.
On to `CC(=O)OC1=C(c2ccccc2)S(=O)(=O)c2ccccc21`, for which the TGI in the assay on LOX IMVI melanoma, in the assay with TK-10 renal, in the assay on SF-539 CNS, in the assay on HOP-92 NSCLC, in the assay with HT29 colon and with RXF 393 renal was above 100 µM throughout. For the same compound, the TGI with SR leukemia, with MDA-MB-231 breast, in the assay on K-562 leukemia and in the assay on MOLT-4 leukemia was above 100 µM each time.
Turning to `CC(=O)OCC1OC(Sc2nc(-c3ccccc3)c(C#N)c(=O)n2C2OC(COC(C)=O)C(OC(C)=O)C(OC(C)=O)C2OC(C)=O)C(OC(C)=O)C(OC(C)=O)C1OC(C)=O` (stereo not given), the TGI with LOX IMVI melanoma, in the assay on TK-10 renal, in the assay with SF-539 CNS, in the assay with HOP-92 NSCLC, in the assay on HT29 colon and in the assay on RXF 393 renal was above 100 µM throughout. For the same compound, the TGI in the assay on SR leukemia, in the assay on MDA-MB-231 breast, in the assay on K-562 leukemia and in the assay with MOLT-4 leukemia was above 100 µM throughout.
With `O=C1OCC2=C1C(c1ccc(Cl)cc1)c1cc3c(cc1O2)OCO3` (stereo not given), the TGI with LOX IMVI melanoma was above 100 µM; in the assay on TK-10 renal, above 100 µM; with SF-539 CNS, above 25.1 µM; in the assay on HOP-92 NSCLC it was above 100 µM; with HT29 colon, above 100 µM; in the assay with RXF 393 renal, above 100 µM. In addition, the TGI is above 31.6 µM with SR leukemia, above 100 µM with MDA-MB-231 breast, above 100 µM in the assay on K-562 leukemia and 46.3 µM in the assay with MOLT-4 leukemia.
On to `COc1ccc(Cc2nc3cc(C(F)(F)F)ccc3n2C[C@@H]2CCCN3CCCCC23)cc1` (stereo not given in full), for which the TGI in the assay on LOX IMVI melanoma amounted to 24.9 µM; in the assay with TK-10 renal, 24.2 µM; in the assay on SF-539 CNS it was 28.1 µM; in the assay with HOP-92 NSCLC, 20.7 µM; with HT29 colon it was 15.4 µM; with RXF 393 renal, 22.3 µM. The TGI in the assay with SR leukemia is above 100 µM; with MDA-MB-231 breast, 25.2 µM; in the assay with K-562 leukemia, above 64.8 µM; with MOLT-4 leukemia, 31.7 µM.
Consider `COc1cc(CCNC2=CC(=O)c3ncccc3C2=O)ccc1O`, for which the TGI in the assay on LOX IMVI melanoma is 6.08 µM; in the assay with TK-10 renal, 70.8 µM; in the assay with SF-539 CNS, 7.83 µM; in the assay on HOP-92 NSCLC, 42.7 µM; in the assay on HT29 colon, 28.4 µM; with RXF 393 renal, 18 µM. The TGI in the assay with SR leukemia came to 38.7 µM; in the assay on MDA-MB-231 breast, 6.24 µM; in the assay on K-562 leukemia it was 17.7 µM; with MOLT-4 leukemia it was 22.8 µM.
For `COc1cc(Nc2nc(NS(=O)(=O)c3cc(C)c(Cl)cc3S)n[nH]2)cc(OC)c1OC`, the TGI with LOX IMVI melanoma, in the assay with TK-10 renal, with SF-539 CNS, in the assay with HOP-92 NSCLC, in the assay on HT29 colon and in the assay on RXF 393 renal was above 100 µM throughout. Further, the TGI in the assay on SR leukemia, in the assay on MDA-MB-231 breast, in the assay with K-562 leukemia and in the assay on MOLT-4 leukemia was above 100 µM throughout.
Take `O=C1C(CN2CCCC2)CCC1CN1CCCC1` (stereo not given): the TGI in the assay on LOX IMVI melanoma was above 51.9 µM; with TK-10 renal, 32.6 µM; in the assay on SF-539 CNS, 35.3 µM; with HOP-92 NSCLC it was 30.1 µM; with HT29 colon, 40.7 µM; with RXF 393 renal, 37.2 µM. Moreover, the TGI was above 100 µM in the assay with SR leukemia, 26.7 µM with MDA-MB-231 breast, above 33.4 µM in the assay with K-562 leukemia and 39.9 µM in the assay on MOLT-4 leukemia.
Regarding `COC(=O)[C@]1(CCC(C)=O)C(=O)C=CN([C@H](C)c2ccccc2)[C@@H]1Cc1ccc(OC)c(OCc2ccccc2)c1I`, the TGI came to 31 µM in the assay with LOX IMVI melanoma; 56.8 µM in the assay with TK-10 renal; 32.9 µM in the assay with SF-539 CNS; 21.3 µM in the assay with HOP-92 NSCLC; 31.8 µM in the assay on HT29 colon; 23.6 µM in the assay with RXF 393 renal. Moreover, the TGI is above 100 µM with SR leukemia, 35.7 µM in the assay with MDA-MB-231 breast, above 100 µM in the assay with K-562 leukemia and above 100 µM in the assay on MOLT-4 leukemia.
For the compound `CCOC(=O)c1cn2c(n1)sc1cc([N+](=O)[O-])ccc12`, the TGI in the assay with LOX IMVI melanoma, in the assay with TK-10 renal, with SF-539 CNS, in the assay on HOP-92 NSCLC, in the assay with HT29 colon and with RXF 393 renal was above 100 µM in each case. For the same compound, the TGI in the assay on SR leukemia, with MDA-MB-231 breast, in the assay with K-562 leukemia and with MOLT-4 leukemia was above 100 µM in each case.
Turning to `CCOC(=O)c1sc(N)nc1N1CCCC1`, the TGI in the assay with LOX IMVI melanoma, in the assay on TK-10 renal, in the assay on SF-539 CNS, with HOP-92 NSCLC, in the assay with HT29 colon and in the assay with RXF 393 renal was above 100 µM each time. Besides, the TGI in the assay with SR leukemia, in the assay with MDA-MB-231 breast, in the assay with K-562 leukemia and in the assay with MOLT-4 leukemia was above 100 µM in each case.
Consider `COc1ccccc1Nc1nc(N)nc(N)c1N`, for which the TGI with LOX IMVI melanoma was 41.7 µM; in the assay on TK-10 renal, above 100 µM; in the assay on SF-539 CNS it was above 100 µM; with HOP-92 NSCLC, above 100 µM; in the assay on HT29 colon, above 100 µM; in the assay on RXF 393 renal, above 100 µM. Moreover, the TGI with SR leukemia was 45.6 µM; in the assay on MDA-MB-231 breast it was 99.6 µM; in the assay on K-562 leukemia, above 100 µM; in the assay with MOLT-4 leukemia, 31.6 µM.
For the compound `COc1cc(/C=C2\C(=O)Nc3ccc(O)cc32)cc(OC)c1OC`, the GI50 with LOX IMVI melanoma was 4.53 µM; with TK-10 renal it was 40 µM; in the assay with SF-539 CNS it was 5.86 µM; with HOP-92 NSCLC, 7.92 µM; in the assay on HT29 colon it was 10.3 µM; in the assay with RXF 393 renal, 2.19 µM. Further, the GI50 in the assay on SR leukemia is 1.75 µM; in the assay on MDA-MB-231 breast it was 8.06 µM; in the assay with K-562 leukemia, 3.83 µM; in the assay on MOLT-4 leukemia it was 1.24 µM. The TGI in the assay with LOX IMVI melanoma was 16.6 µM; with TK-10 renal, above 100 µM; in the assay on SF-539 CNS, 81.5 µM; with HOP-92 NSCLC, 30.2 µM; in the assay with HT29 colon it was 25.3 µM; in the assay on RXF 393 renal, 5.94 µM. In addition, the TGI in the assay with SR leukemia was 9.5 µM; with MDA-MB-231 breast, 37 µM; with K-562 leukemia, above 100 µM; in the assay with MOLT-4 leukemia, 28.5 µM.
For `CCc1c(N=[N+]=[N-])c2ccccc2oc1=O`, the TGI in the assay on LOX IMVI melanoma, in the assay with TK-10 renal, in the assay with SF-539 CNS, in the assay with HOP-92 NSCLC, with HT29 colon and in the assay on RXF 393 renal was above 100 µM throughout. Further, the TGI in the assay with SR leukemia, in the assay on MDA-MB-231 breast, with K-562 leukemia and in the assay on MOLT-4 leukemia was above 100 µM each time.
On to `NCCCc1nonc1C(=O)O`, for which the TGI with LOX IMVI melanoma, with TK-10 renal, with SF-539 CNS, with HOP-92 NSCLC, in the assay on HT29 colon and with RXF 393 renal was above 100 µM throughout. In addition, the TGI with SR leukemia, in the assay on MDA-MB-231 breast, in the assay on K-562 leukemia and in the assay with MOLT-4 leukemia was above 100 µM throughout.
On to `O=C(O)c1ccc2nc(-c3ccccn3)c(-c3ccccn3)nc2c1`, for which the TGI in the assay on LOX IMVI melanoma, in the assay with TK-10 renal, in the assay on SF-539 CNS, with HOP-92 NSCLC, with HT29 colon and in the assay with RXF 393 renal was above 100 µM in each case. The TGI with SR leukemia, in the assay with MDA-MB-231 breast, with K-562 leukemia and in the assay with MOLT-4 leukemia was above 100 µM in each case.
Regarding `C(#C[C@@]12CCC[C@@H]1NCO2)c1ccc2c(c1)OCO2`, the TGI in the assay on LOX IMVI melanoma, with TK-10 renal, with SF-539 CNS, in the assay on HOP-92 NSCLC, in the assay on HT29 colon and with RXF 393 renal was above 100 µM in each case. Also, the TGI is above 100 µM in the assay on SR leukemia, above 100 µM in the assay on MDA-MB-231 breast, 60.2 µM with K-562 leukemia and 67.7 µM in the assay on MOLT-4 leukemia.

The values above are taken from PubChem BioAssay (NCI).
